One test deals with TF-1 cells. In words: C-peptide-induced cFos mRNA expression (RT-PCR) in TF-1 cells. The settings on record: treatment with C-peptide (FIG. 4). The class given is cell-based, human. As to the method: (§1) In utilizing the methodology to determine a C-peptide receptor, three human cell lines were determined (101) to respond to treatment with C-peptide with an up regulation of cFos message as determined by RT-PCR. These three were KATOIII (Human Stomach Carcinoma), HEK 293 (human embryonic kidney cells) and TF-1 (an erythroleukemia cell line). The results of tests to show responsiveness are provided graphically in FIGS. 2, 3, and 4. When these three cell lines were screened for the expression of known orphan GPCRs (103), 24 of the approximately 125 orphan GPCRs were expressed by all three cell types as indicated by the table of FIG. 5. Using bioinformatics, the pool of FIG. 5 can be narrowed (105) by eliminating any candidates already matched to other ligands or that had significant homology to GPCRs that bind to non-peptide targets (15 in this case). This is also shown in FIG. 5 with the items that are eliminated darkened. One GPCR (GPR107) could be eliminated as it was recently determined that this was the cognate receptor for neurostatin. This also allowed it to be used as a convenient control as evidenced later herein.

The subject of another test is HEK293 cells. In words: C-peptide-induced cFos mRNA expression (RT-PCR) in HEK293 cells. Format: cell-based, human. Conditions: treatment with C-peptide (FIG. 3). As to the method:
as §1

In the next test the target is T1, GPR146 (Homo sapiens, UniProt Q96CH1).
T1 construct: endogenous in cells; host or cells: KATOIII (human stomach carcinoma)
T1 sequence (Q96CH1 whole entry): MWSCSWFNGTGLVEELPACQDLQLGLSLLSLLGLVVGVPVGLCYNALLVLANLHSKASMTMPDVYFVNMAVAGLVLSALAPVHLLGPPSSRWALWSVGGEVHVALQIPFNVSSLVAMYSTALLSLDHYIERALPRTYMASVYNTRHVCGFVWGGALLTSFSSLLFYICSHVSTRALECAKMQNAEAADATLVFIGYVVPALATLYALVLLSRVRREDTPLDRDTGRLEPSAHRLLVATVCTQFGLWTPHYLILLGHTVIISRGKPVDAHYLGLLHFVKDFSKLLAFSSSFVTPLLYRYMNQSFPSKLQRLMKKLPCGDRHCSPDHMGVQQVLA
Kind of test: cFos response to C-peptide in siRNA-transfected KATOIII cells. The settings on record: 1 nmole C-peptide. The class given is cell-based. As to the method: Once the hierarchical candidates were identified and ranked, KATOIII cells were then transfected with siRNA (Integrated DNA technologies) (111) directed against either GPR107 (control), GPR146 (most likely candidate not yet tested) or eGFP (green fluorescent protein-control) using […] (Invitrogen). Five hours later, the media was changed to serum free control media (ATCC) and the serum was starved overnight. Twenty-four (24) hours after transfection with siRNA, cells were treated with 1 nmole C-peptide (Phoenix Pharmaceuticals) for 1 hour, then lysed and RNA were isolated using an RNeasy Kit (Qiagen). RNA was used as a template from the production of cDNA, and changes in cFos expression were determined using RT-PCR (BioRad 2x iQ SyberGreen Master Mix, using a BioRad CFX real time system). […] As this produced the desired negative response (113), GPR146 was the target GPCR (115). The receptiveness of GPR146 to C-peptide has since been verified by additional conventional tests.

In a further test the test system is KATOIII cells. Kind of test: C-peptide-induced cFos mRNA expression (RT-PCR) in KATOIII cells. Format: cell-based, human. As to the method: as §1, with “This is also shown in FIG. 5 with the items that are eliminated darkened.” left out, “This also allowed it to be used as a convenient control as evidenced later herein.” left out
To evaluate whether anti-GPR146ex-induced enhancement of receptor capping and co-localization corresponded with an increase in C-peptide-induced cFos expression, KATOIII cells were treated with either vehicle (control media), 1 nM C-peptide, anti-GPR146ex (1:500), or anti-GPR146ex and 1 nM C-peptide for one hour at 37 degrees Celsius. […] Changes in cFos mRNA expression were evaluated using real time PCR (RT-PCR).

With C-peptide, the “cFos mRNA expression” value with TF-1 cells, with HEK293 cells and in the test on KATOIII cells (treatment with C-peptide (FIG. 2)) was “increase in cFos mRNA expression” throughout. Besides, the cFos expression result on GPR146 (KATOIII cells transfected with Vehicle, GPR107 siRNA or eGFP siRNA (controls), 1 hour) is given as “increase in cFos”; on GPR146 (KATOIII cells with GPR146 compromised by siRNA, 1 hour (FIG. 6)), “failed to respond”. Moreover, the “cFos mRNA expression, material alone” value with KATOIII cells (one hour at 37 degrees Celsius, 1 nM C-peptide or anti-GPR146ex 1:500 alone (FIG. 7)) is recorded as “increased cFos”.
